Source: ChEMBL document CHEMBL5537110, “SIRT1-dependent mitochondrial biogenesis supports therapeutic effects of 4-butyl-polyhydroxybenzophenone compounds against NAFLD” (Eur J Med Chem, 2023)
Calls of active or inactive are those of the source. The calls are words filed in the database; no cut-off is given here.

Experiments:
[1] = molecular target: T1, Peroxisome proliferator-activated receptor gamma coactivator 1-alpha (Homo sapiens) (UniProt Q9UBK2); experiment: (§1) Binding affinity to PGC1alpha (unknown origin) by surface plasmon resonance assay; settings: filed as activator
T1 sequence (whole entry): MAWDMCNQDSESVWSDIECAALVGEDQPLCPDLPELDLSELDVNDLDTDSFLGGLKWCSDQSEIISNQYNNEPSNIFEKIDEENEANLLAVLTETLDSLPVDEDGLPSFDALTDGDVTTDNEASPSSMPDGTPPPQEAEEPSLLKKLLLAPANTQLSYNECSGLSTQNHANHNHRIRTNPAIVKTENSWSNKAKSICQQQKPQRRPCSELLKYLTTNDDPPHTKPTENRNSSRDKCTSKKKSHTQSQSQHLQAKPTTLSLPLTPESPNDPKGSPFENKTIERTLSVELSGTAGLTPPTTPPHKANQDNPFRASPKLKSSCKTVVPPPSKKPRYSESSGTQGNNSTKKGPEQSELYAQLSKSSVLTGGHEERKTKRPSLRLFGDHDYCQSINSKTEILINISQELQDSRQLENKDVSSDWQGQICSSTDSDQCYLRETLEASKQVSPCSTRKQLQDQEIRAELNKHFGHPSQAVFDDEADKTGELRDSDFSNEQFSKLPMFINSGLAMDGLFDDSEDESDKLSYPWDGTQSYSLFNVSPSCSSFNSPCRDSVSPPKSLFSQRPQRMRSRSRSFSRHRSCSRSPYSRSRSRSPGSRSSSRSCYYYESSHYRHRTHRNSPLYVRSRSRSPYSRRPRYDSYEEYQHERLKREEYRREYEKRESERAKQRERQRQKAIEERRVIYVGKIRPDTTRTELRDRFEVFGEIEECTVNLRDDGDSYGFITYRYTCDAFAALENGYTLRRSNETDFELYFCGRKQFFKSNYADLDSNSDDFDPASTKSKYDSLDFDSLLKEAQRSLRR

[2] = molecular target: T2, Peroxisome proliferator-activated receptor gamma coactivator 1-alpha (Homo sapiens, UniProt Q9UBK2); experiment: as §1
T2 sequence (Q9UBK2 whole entry): T1 sequence (whole entry)

[3] = molecular target: T1, Peroxisome proliferator-activated receptor gamma coactivator 1-alpha (Homo sapiens); experiment: Binding affinity to PGC1alpha in human HepG2 cells assessed as increase in protein abundance at 80 to 320 uM pretreated with compound for 30 mins followed by proteolysis for 15 mins by DARTS assay; format: cell-based; settings: filed as activator, dose 80-320 µM, time 45.0 min
[4] = molecular target: T3, NAD-dependent protein deacetylase sirtuin-1 (Homo sapiens) (UniProt Q96EB6); experiment: Binding affinity to SIRT1 in human HepG2 cells assessed as increase in thermal stabilization of protein at 320 uM pretreated with compound for 30 mins followed by incubation at 40 to 65 degC for 3 mins by CETSA-WB analysis; format: cell-based; settings: filed as activator, time 33.0 min
T3 sequence (whole entry): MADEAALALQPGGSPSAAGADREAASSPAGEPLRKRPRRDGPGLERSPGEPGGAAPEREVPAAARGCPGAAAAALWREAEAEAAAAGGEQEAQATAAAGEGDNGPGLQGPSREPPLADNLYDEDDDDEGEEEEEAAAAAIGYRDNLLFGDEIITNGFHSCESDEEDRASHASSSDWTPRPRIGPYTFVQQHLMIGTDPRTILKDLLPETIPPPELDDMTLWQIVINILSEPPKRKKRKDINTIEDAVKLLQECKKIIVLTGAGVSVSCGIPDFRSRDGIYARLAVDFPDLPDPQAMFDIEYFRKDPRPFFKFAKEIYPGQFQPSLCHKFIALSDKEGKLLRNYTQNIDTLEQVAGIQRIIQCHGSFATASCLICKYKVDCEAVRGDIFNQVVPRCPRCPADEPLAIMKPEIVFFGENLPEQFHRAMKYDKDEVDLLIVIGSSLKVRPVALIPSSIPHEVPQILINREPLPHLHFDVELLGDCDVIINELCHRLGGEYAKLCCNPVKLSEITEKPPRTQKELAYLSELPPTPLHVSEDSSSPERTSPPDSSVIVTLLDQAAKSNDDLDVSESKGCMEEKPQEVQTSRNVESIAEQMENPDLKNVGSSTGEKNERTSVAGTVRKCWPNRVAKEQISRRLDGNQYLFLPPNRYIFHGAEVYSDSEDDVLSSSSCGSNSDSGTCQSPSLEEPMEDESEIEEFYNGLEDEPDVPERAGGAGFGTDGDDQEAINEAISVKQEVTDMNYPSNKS

[5] = molecular target: T3, NAD-dependent protein deacetylase sirtuin-1 (Homo sapiens); experiment: Binding affinity to SIRT1 in human HepG2 cells assessed as increase in thermal stability of protein pretreated with compound for 30 mins followed by incubation at 50 degC for 3 mins by CETSA-WB analysis; format: cell-based; settings: filed as activator, dose 80-320 µM, time 33.0 min
HepG2 [6] = experiment: Recovery of mitochondrial biogenesis in 40% FBS-induced steatosis human HepG2 cells model assessed as increase in SIRT1 mRNA expression incubated for 24 hrs by qRT-PCR analysis; format: functional, cell-based; settings: dose 0.2-5 µM
HepG2 [7] = experiment: Inhibition of mitochondrial membrane potential dissipation in 40% FBS-induced steatosis human HepG2 cells model assessed as increase in mitochondrial membrane potential incubated with compound for 24 hrs followed by replacement with steatosis inducing DMEM with 40% FBS medium by JC-1 staining based fluorescence microscopy; format: functional, cell-based; settings: Mitochondria, dose 0.2-5 µM
HepG2 [8] = experiment: Inhibition of lipid toxicity in 40% FBS-induced steatosis human HepG2 cells model assessed as decrease in triglyceride content at 0.2 to 5 uM incubated with compound for 24 hrs followed by replacement with steatosis inducing DMEM with 40% FBS medium; format: functional, cell-based; settings: dose 0.2-5 µM
HepG2 [9] = experiment: Inhibition of liver injury in 40% FBS-induced steatosis human HepG2 cells model assessed as decrease in LDH level at 0.2 to 5 uM incubated in steatosis inducing DMEM with 40% FBS medium for 24 hrs followed by compound treatment; format: functional, cell-based; settings: dose 0.2-5 µM
HepG2 [10] = experiment: Inhibition of liver injury in 40% FBS-induced steatosis human HepG2 cells model assessed as decrease in AST level at 0.2 to 5 uM incubated with compound for 24 hrs followed by replacement with steatosis inducing DMEM with 40% FBS medium; format: functional, cell-based; settings: dose 0.2-5 µM
HepG2 [11] = experiment: Inhibition of liver injury in 40% FBS-induced steatosis human HepG2 cells model assessed as decrease in GDH level at 0.2 to 5 uM incubated with compound for 24 hrs followed by replacement with steatosis inducing DMEM with 40% FBS medium; format: functional, cell-based; settings: dose 0.2-5 µM
HepG2 [12] = experiment: Inhibition of liver injury in 40% FBS-induced steatosis human HepG2 cells model assessed as increase in liver protection index by measuring increase in GSH level at 0.2 to 5 uM incubated in steatosis inducing DMEM with 40% FBS medium for 24 hrs followed by compound treatment; format: functional, cell-based; settings: dose 0.2-5 µM
HepG2 [13] = experiment: Inhibition of liver injury in human HepG2 cells assessed as increase in liver protection index by measuring increase in ratio of GSH to GSSG at 0.2 to 5 uM incubated with compound for 24 hrs followed by replacement with steatosis inducing DMEM with 40% FBS medium; format: functional, cell-based; settings: dose 0.2-5 µM
Rattus norvegicus [14] = experiment: Hepatoprotective activity against high fat diet-fed NAFLD Sprague-Dawley rat model assessed as decrease in serum triglyceride content administered intragastrically via gavage for 4 weeks; format: functional, organism-based; settings: dose 12.3-61.4 mg/kg, route ig
Rattus norvegicus [15] = experiment: Hepatoprotective activity against high fat diet-fed NAFLD Sprague-Dawley rat model assessed as decrease in serum ALT level administered intragastrically via gavage for 4 weeks; format: functional, organism-based; settings: dose 12.3-61.4 mg/kg, route ig

- Activity [1]: Dose-Dependent Effect
- Kd [2]: 172 µM
- Activity [3]: Active
- Activity [4]: Active
- Activity [5]: Dose-Dependent Effect
SMILES: CC(C)(C)c1ccc(C(=O)c2ccc(O)c(O)c2)cc1
- Activity (HepG2 [6]): Dose-Dependent Effect
- inhibition (HepG2 [7]): Dose-Dependent Effect
- inhibition (HepG2 [8]): Active
- inhibition (HepG2 [9]): Active
- inhibition (HepG2 [10]): Active
- inhibition (HepG2 [11]): Active
- inhibition (HepG2 [12]): Active
- inhibition (HepG2 [13]): Active
- Activity (Rattus norvegicus [14]): Dose-Dependent Effect
- Activity (Rattus norvegicus [15]): Active
